Test results from ChEMBL document CHEMBL5346978, “Exploration of Tetrahydroisoquinoline- and Benzo[c]azepine-Based Sphingosine 1-Phosphate Receptor 1 Agonists for the Treatment of Multiple Sclerosis” (J Med Chem, 2023).
The source made the active and inactive calls. The rule behind the calls is not given here.

Legend:
[1] = Cardiotoxicity in human iPSC-derived cardiomyocyte assessed as effect on intracellular cardiomyocyte contraction at 10 uM measured for 2 mins by FLIPR analysis; assay type: toxicity, cell-based; details: cardiac muscle cell
[2] = molecular target: T1, Sphingosine 1-phosphate receptor 1 (Homo sapiens, UniProt P21453); test: Agonist activity at S1P1 (unknown origin) expressed in PathHunter CHO-K1 EDG1 beta-arrestin cells assessed as beta-arrestin2 recruitment incubated for 90 mins by chemiluminescence based assay; assay type: functional, cell-based
T1 sequence (P21453 whole entry): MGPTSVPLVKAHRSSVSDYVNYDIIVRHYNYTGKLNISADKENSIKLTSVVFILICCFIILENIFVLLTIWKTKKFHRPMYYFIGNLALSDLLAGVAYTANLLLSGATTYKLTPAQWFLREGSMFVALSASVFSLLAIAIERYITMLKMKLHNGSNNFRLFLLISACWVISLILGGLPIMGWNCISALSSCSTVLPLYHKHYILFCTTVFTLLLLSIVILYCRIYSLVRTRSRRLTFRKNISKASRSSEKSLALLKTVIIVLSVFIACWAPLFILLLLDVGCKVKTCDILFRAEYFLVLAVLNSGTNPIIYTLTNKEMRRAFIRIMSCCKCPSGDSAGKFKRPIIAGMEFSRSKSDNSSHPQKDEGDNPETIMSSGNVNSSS

[3] = molecular target: Sphingosine 1-phosphate receptor 3 (Homo sapiens, UniProt Q99500); test: Agonist activity at S1P3 (unknown origin) expressed in PathHunter CHO-K1 EDG1 beta-arrestin cells assessed as beta-arrestin recruitment; assay type: functional, cell-based
Chain of Sphingosine 1-phosphate receptor 3 (Q99500 whole entry): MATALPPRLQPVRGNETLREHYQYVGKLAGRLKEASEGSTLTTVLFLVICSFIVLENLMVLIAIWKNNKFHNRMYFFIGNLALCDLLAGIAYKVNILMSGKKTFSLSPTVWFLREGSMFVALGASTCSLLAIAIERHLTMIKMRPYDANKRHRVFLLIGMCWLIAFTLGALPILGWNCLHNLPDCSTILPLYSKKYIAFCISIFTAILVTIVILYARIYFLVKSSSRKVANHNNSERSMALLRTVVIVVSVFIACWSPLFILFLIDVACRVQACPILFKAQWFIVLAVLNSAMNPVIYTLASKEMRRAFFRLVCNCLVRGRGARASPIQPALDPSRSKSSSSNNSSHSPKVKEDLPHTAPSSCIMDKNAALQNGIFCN

[4] = Toxicity in C57BL/6 mouse assessed as body weight loss at 10 mg/kg, po administered once a day for 23 days; assay type: organism-based; details: in vivo, 552 h, time 23 day
[5] = Half life in ICR mouse at 10 mg/kg, po measured at 0.25 to 12 hrs by LC-MS/MS analysis; assay type: ADME, organism-based; details: in vivo, time 0.25-12 hrs
Mus musculus [6] = test: In vivo agonist activity at S1P1 in po dosed mouse assessed as reduction in peripheral lymphocyte count at 1 to 10 mg/kg, po measured after 24 hrs; assay type: functional, organism-based; details: dose 1-10 mg/kg
Mus musculus [7] = test: In vivo agonist activity at S1P1 in mouse assessed as reduction in peripheral lymphocyte count at 10 mg/kg, po measured at 3 hrs; assay type: functional, organism-based
[8] = Microsomal stability in mouse liver microsomes assessed as parent compound remaining preincubated for 5 mins followed by NADPH addition measured after 60 mins by LC-MS/MS analysis; assay type: ADME, Microsome; details: time 65 min, read-out: Stability
[9] = Tmax in ICR mouse at 10 mg/kg, po measured at 0.25 to 12 hrs by LC-MS/MS analysis; assay type: ADME, organism-based; details: in vivo, time 0.25-12 hrs
CYP2C9 = CYP2C9 (Homo sapiens, UniProt P11712); test: Inhibition of CYP2C9 in human liver microsomes using diclofenac as substrate assessed as residual activity at 10 uM preincubated for 5 mins followed by substrate addition and measured after 15 mins in presence of NADPH by LC-MS/MS analysis; assay type: ADME, Microsome; details: probe diclofenac, time 20 min, read-out: Activity
Chain of CYP2C9 (P11712 whole entry): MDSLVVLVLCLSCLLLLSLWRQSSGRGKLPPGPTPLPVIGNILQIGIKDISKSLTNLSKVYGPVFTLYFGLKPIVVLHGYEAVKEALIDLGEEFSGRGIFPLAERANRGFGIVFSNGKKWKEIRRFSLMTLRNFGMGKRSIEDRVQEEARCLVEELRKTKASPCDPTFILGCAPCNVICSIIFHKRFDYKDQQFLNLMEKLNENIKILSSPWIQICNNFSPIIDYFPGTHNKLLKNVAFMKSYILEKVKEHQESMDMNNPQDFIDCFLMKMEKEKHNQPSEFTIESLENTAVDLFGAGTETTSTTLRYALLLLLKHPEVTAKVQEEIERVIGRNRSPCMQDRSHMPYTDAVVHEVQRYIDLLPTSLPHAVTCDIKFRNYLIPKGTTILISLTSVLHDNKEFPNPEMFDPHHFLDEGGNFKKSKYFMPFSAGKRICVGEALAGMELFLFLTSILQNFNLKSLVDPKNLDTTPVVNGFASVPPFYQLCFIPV

[10] = Half life in ICR mouse at 1 mg/kg, iv measured at 0.25 to 12 hrs by LC-MS/MS analysis; assay type: ADME, organism-based; details: in vivo, time 0.25-12 hrs
[11] = Observed MRT (infinitive) in ICR mouse at 1 mg/kg, iv measured at 0.25 to 12 hrs by LC-MS/MS analysis; assay type: ADME, organism-based; details: in vivo, time 0.25-12 hrs
[12] = AUClast in ICR mouse at 10 mg/kg, po measured at 0.25 to 12 hrs by LC-MS/MS analysis; assay type: ADME, organism-based; design: time 0.25-12 hrs, dose 10 mg/kg, route po; details: in vivo
Mus musculus [13] = test: Protection against MOG35-55/CFA-induced experimental autoimmune encephalomyelitis C57BL/6 mouse model assessed as reduction disease progression at 10 mg/kg, po administered once a day for 23 days; assay type: functional, organism-based; details: time 23.0 day
CYP2D6 = CYP2D6 (Homo sapiens, UniProt P10635); test: Inhibition of CYP2D6 in human liver microsomes using dextromethorphan as substrate assessed as residual activity at 10 uM preincubated for 5 mins followed by substrate addition and measured after 15 mins in presence of NADPH by LC-MS/MS analysis; assay type: ADME, Microsome; details: probe dextromethorphan, time 20 min, read-out: Activity
Chain of CYP2D6 (P10635 whole entry): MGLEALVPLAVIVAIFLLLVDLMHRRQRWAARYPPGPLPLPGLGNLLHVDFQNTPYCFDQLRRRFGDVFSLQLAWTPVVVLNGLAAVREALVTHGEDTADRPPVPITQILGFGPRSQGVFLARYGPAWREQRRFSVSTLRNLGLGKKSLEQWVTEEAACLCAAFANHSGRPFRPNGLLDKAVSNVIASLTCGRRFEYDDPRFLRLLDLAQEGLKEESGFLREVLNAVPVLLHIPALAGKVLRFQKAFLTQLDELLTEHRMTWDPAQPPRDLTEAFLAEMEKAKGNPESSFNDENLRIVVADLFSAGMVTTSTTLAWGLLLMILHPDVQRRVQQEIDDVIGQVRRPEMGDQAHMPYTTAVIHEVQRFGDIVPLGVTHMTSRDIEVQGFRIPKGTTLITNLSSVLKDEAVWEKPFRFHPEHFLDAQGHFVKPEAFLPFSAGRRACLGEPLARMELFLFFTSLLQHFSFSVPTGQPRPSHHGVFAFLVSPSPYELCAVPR

[14] = molecular target: T1, Sphingosine 1-phosphate receptor 1; test: Agonist activity at S1P1 (unknown origin) expressed in human HEK293/Galpha15 cells assessed as Ca2+ activation at 1 uM measured for 2 hrs by FLIPR analysis relative to control; assay type: functional, cell-based; details: filed as agonist
[15] = molecular target: T1, Sphingosine 1-phosphate receptor 1; test: Agonist activity at S1P1 (unknown origin) expressed in human HEK293/Galpha15 cells assessed as Ca2+ activation measured for 2 hrs by FLIPR analysis; assay type: functional, cell-based
[16] = AUClast in ICR mouse at 1 mg/kg, iv measured at 0.25 to 12 hrs by LC-MS/MS analysis; assay type: ADME, organism-based; design: time lower 0.25 hrs, dose 1 mg/kg, time upper 12 hrs, route iv; details: in vivo
[17] = molecular target: T2, Sphingosine 1-phosphate receptor 4 (Homo sapiens, UniProt O95977); test: Agonist activity at S1P4 (unknown origin) expressed in CHO cells assessed as Ca2+ activation; assay type: functional, cell-based
T2 sequence (O95977 whole entry): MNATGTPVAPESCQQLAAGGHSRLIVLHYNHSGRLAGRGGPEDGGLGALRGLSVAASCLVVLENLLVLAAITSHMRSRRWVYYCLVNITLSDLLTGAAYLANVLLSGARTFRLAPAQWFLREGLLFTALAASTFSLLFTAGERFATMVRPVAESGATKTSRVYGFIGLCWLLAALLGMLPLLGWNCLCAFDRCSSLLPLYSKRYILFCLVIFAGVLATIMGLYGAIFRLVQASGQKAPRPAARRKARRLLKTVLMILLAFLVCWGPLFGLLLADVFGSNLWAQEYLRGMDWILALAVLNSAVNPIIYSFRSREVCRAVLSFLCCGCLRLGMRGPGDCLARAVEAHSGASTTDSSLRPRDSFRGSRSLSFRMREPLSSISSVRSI

[18] = molecular target: Sphingosine 1-phosphate receptor 5 (Homo sapiens, UniProt Q9H228); test: Agonist activity at S1P5 (unknown origin) expressed in CHO cells assessed as Ca2+ activation; assay type: functional, cell-based
Chain of Sphingosine 1-phosphate receptor 5 (Q9H228 whole entry): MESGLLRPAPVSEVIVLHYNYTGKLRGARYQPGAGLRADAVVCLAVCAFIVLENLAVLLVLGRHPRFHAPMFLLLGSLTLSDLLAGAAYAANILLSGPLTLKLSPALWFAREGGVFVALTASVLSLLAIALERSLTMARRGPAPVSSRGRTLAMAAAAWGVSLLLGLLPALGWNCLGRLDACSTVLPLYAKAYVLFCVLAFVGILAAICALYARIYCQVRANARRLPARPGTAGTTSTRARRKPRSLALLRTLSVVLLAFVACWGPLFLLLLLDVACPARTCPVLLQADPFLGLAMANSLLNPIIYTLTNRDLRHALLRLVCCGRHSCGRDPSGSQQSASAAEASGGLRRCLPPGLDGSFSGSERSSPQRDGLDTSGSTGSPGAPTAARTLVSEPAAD

[19] = Cmax in ICR mouse at 10 mg/kg, po measured at 0.25 to 12 hrs by LC-MS/MS analysis; assay type: ADME, organism-based; design: time upper 12 hrs, dose 10 mg/kg, time lower 0.25 hrs, route po; details: in vivo
[20] = Observed volume of distribution at steady state in ICR mouse at 1 mg/kg, iv measured at 0.25 to 12 hrs by LC-MS/MS analysis; assay type: ADME, organism-based; details: in vivo, time 0.25-12 hrs, read-out: Vdss
[21] = Oral bioavailability in ICR mouse at 10 mg/kg measured at 0.25 to 12 hrs by LC-MS/MS analysis; assay type: ADME, organism-based; details: in vivo, time 0.25-12 hrs
[22] = Observed MRT (infinitive) in ICR mouse at 10 mg/kg, po measured at 0.25 to 12 hrs by LC-MS/MS analysis; assay type: ADME, organism-based; details: in vivo, time 0.25-12 hrs
[23] = molecular target: Sphingosine 1-phosphate receptor 2 (Homo sapiens, UniProt O95136); test: Agonist activity at S1P2 (unknown origin) expressed in PathHunter CHO-K1 EDG1 beta-arrestin cells assessed as beta-arrestin recruitment; assay type: functional, cell-based
Chain of Sphingosine 1-phosphate receptor 2 (O95136 whole entry): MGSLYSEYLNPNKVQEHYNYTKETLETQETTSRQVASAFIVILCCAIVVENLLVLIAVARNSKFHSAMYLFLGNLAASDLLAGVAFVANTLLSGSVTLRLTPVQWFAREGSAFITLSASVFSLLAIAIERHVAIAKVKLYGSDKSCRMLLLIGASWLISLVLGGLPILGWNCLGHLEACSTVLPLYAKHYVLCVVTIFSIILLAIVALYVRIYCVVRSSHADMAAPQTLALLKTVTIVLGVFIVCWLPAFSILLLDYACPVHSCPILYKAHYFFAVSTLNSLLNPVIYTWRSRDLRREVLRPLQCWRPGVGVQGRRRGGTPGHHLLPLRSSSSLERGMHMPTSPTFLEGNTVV

Mus musculus [24] = test: In vivo agonist activity at S1P1 in mouse assessed as reduction in peripheral lymphocyte count at 10 mg/kg, po measured at 6 hrs; assay type: functional, organism-based
[25] = Microsomal stability in rat liver microsomes assessed as parent compound remaining preincubated for 5 mins followed by NADPH addition measured after 60 mins by LC-MS/MS analysis; assay type: ADME, Microsome; details: time 65 min, read-out: Stability
Mus musculus [26] = test: In vivo agonist activity at S1P1 in mouse assessed as reduction in peripheral lymphocyte count at 1 to 3 mg/kg, po measured at 3 hrs; assay type: functional, organism-based; details: dose 1-3 mg/kg
[27] = Observed clearance in ICR mouse at 1 mg/kg, iv measured at 0.25 to 12 hrs by LC-MS/MS analysis; assay type: ADME, organism-based; details: in vivo, time 0.25-12 hrs
Mus musculus [28] = test: In vivo agonist activity at S1P1 in po dosed mouse assessed as reduction in peripheral lymphocyte count measured at 6 hrs; assay type: functional, organism-based; details: dose 1-10 mg/kg
[29] = molecular target: T1, Sphingosine 1-phosphate receptor 1; test: Agonist activity at S1P1 (unknown origin) expressed in PathHunter CHO-K1 EDG1 beta-arrestin cells assessed as beta-arrestin2 recruitment at 1 uM incubated for 90 mins by chemiluminescence based assay relative to control; assay type: functional, cell-based; details: filed as agonist
CYP3A4 = CYP3A4 (Homo sapiens, UniProt P08684); test: Inhibition of CYP3A4 in human liver microsomes using midazolam as substrate assessed as residual activity at 10 uM preincubated for 5 mins followed by substrate addition and measured after 15 mins in presence of NADPH by LC-MS/MS analysis; assay type: ADME, Microsome; details: probe midazolam, time 20 min, read-out: Activity
Chain of CYP3A4 (P08684 whole entry): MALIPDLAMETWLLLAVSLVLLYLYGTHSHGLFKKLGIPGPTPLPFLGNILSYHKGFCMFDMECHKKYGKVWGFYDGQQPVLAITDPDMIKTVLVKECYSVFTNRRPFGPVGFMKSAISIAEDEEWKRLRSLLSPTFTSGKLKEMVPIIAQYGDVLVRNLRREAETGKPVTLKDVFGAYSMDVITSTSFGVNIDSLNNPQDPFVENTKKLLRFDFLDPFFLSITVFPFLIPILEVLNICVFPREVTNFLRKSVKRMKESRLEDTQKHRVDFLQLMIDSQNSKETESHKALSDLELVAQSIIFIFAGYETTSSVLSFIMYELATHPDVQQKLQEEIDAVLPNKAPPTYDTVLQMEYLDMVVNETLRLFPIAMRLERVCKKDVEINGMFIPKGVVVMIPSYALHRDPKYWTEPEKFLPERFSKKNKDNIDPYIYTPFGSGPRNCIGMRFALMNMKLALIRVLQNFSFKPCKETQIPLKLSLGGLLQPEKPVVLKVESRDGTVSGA

[30] = molecular target: T2, Sphingosine 1-phosphate receptor 4; test: Agonist activity at S1P4 (unknown origin) expressed in PathHunter CHO-K1 EDG1 beta-arrestin cells assessed as beta-arrestin recruitment; assay type: functional, cell-based
[31] = Cardiotoxicity in human iPSC-derived cardiomyocyte assessed as effect on intracellular cardiomyocyte contraction at 20 uM measured for 2 mins by FLIPR analysis; assay type: toxicity, cell-based; details: cardiac muscle cell

Structure (SMILES): CC(C)Oc1ccc(COc2ccc3c(c2)CCCN(S(=O)(=O)CCC(=O)O)C3)cc1C#N
- Activity [1]: Non-Toxic
- EC50 [2]: 0.016 µM
- EC50 [3]: > 100 µM
- Activity [4]: Non-Toxic
- half-life [5]: 1.8 h
- Activity (Mus musculus [6]): Active
- Activity (Mus musculus [7]): Active
- remaining at 1 h [8]: 67.1%
- Tmax [9]: 5 h
- activity at 0.25 h, 10 µM (CYP2C9): 96.2%
- half-life [10]: 0.6 h
- MRT inf [11]: 0.4 h
- AUC(0-t) [12]: 1960 ng·h/mL
- Activity (Mus musculus [13]): Active
- activity at 0.25 h, 10 µM (CYP2D6): 94.8%
- Activity [14]: 113%
- EC50 [15]: 0.021 µM
- AUC(0-t) [16]: 593 ng·h/mL
- EC50 [17]: 33 µM
- EC50 [18]: 0.11 µM
- Cmax [19]: 1130 ng/mL
- Vd [20]: 0.6 L/kg
- bioavailability [21]: 33%
- MRT inf [22]: 2.5 h
- EC50 [23]: > 100 µM
- Activity (Mus musculus [24]): Active
- remaining at 1 h [25]: 62.2%
- Activity (Mus musculus [26]): Active
- clearance [27]: 29 mL/min/kg
- Activity (Mus musculus [28]): Dose-Dependent Effect
- Activity [29]: 81%
- activity at 0.25 h, 10 µM (CYP3A4): 96.4%
- EC50 [30]: 17.7 µM

Structure (SMILES): CC(C)NCC(O)c1ccc(NS(C)(=O)=O)cc1 (centres undefined) [SOTALOL]
- Activity [31]: Non-Toxic
